Data from the kinase profiling compilation of Christmann-Franck et al. (2016).

Assays:
Assay in all cases: KINOMEscan competition binding
Conditions in all cases: compound 10.0 µM
[1] = target: PIK3CA (human) (UniProt P42336)
[2] = target: NEK7 (human) (UniProt Q8TDX7)
[3] = target: FGR (human) (UniProt P09769)
[4] = target: ITK (human) (UniProt Q08881)
[5] = target: PIM1 (human) (UniProt P11309)
[6] = target: NEK2 (human) (UniProt P51955)
[7] = target: CDK2 (human) (UniProt P24941)
[8] = target: MYLK2 (human) (UniProt Q9H1R3)
[9] = target: RIOK1 (human) (UniProt Q9BRS2)
[10] = target: CSNK1G2 (human) (UniProt P78368)
[11] = target: PRKCI (human) (UniProt P41743)
[12] = target: ERBB2 (human) (UniProt P04626)
[13] = target: MAP3K3 (human) (UniProt Q99759)
[14] = target: CDKL1 (human) (UniProt Q00532)
[15] = target: AAK1 (human) (UniProt Q2M2I8)
[16] = target: ULK1 (human) (UniProt O75385)
[17] = target: CAMK2G (human) (UniProt Q13555)
[18] = target: CLK3 (human) (UniProt P49761)
[19] = target: HUNK (human) (UniProt P57058)
[20] = target: MAP3K5 (human) (UniProt Q99683)
[21] = target: AKT1 (human) (UniProt P31749)
[22] = tested on: PIK3CA (human), P42336 [M1043I]
[23] = target: TLK2 (human) (UniProt Q86UE8)
[24] = target: CDK7 (human) (UniProt P50613)
[25] = target: MAPK9 (human) (UniProt P45984)
[26] = target: PRKG1 (human) (UniProt Q13976)
[27] = target: PRKG2 (human) (UniProt Q13237)
[28] = target: RET (human) (UniProt P07949)
[29] = target: IRAK3 (human) (UniProt Q9Y616)
[30] = target: RIPK2 (human) (UniProt O43353)
[31] = target: CDK9 (human) (UniProt P50750)
[32] = target: PTK2 (human) (UniProt Q05397)
[33] = target: DYRK2 (human) (UniProt Q92630)
[34] = target: INSRR (human) (UniProt P14616)
[35] = target: YES1 (human) (UniProt P07947)
[36] = target: PRKCQ (human) (UniProt Q04759)
[37] = target: YSK4 (human) (UniProt Q56UN5)
[38] = target: NUAK1 (human) (UniProt O60285)
[39] = target: CDK3 (human) (UniProt Q00526)
[40] = target: TAOK2 (human) (UniProt Q9UL54)
[41] = target: MET (human) (UniProt P08581)

CAMK2G (human), sequence (Q13555 whole entry, looked up): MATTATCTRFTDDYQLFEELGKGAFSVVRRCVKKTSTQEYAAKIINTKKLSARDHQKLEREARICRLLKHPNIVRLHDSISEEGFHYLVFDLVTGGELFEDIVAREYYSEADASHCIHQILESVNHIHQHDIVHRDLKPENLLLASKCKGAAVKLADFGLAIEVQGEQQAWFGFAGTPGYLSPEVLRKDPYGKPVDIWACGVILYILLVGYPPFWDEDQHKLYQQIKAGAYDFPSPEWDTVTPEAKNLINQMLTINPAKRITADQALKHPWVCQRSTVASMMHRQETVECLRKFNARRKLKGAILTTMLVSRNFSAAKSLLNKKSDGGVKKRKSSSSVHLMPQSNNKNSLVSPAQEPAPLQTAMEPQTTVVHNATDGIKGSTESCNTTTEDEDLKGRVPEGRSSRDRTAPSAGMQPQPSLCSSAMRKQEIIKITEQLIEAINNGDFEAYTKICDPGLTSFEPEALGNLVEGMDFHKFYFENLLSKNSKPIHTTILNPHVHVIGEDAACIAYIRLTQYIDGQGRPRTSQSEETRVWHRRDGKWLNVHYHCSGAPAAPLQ
MAP3K3 (human), sequence (Q99759 whole entry, looked up): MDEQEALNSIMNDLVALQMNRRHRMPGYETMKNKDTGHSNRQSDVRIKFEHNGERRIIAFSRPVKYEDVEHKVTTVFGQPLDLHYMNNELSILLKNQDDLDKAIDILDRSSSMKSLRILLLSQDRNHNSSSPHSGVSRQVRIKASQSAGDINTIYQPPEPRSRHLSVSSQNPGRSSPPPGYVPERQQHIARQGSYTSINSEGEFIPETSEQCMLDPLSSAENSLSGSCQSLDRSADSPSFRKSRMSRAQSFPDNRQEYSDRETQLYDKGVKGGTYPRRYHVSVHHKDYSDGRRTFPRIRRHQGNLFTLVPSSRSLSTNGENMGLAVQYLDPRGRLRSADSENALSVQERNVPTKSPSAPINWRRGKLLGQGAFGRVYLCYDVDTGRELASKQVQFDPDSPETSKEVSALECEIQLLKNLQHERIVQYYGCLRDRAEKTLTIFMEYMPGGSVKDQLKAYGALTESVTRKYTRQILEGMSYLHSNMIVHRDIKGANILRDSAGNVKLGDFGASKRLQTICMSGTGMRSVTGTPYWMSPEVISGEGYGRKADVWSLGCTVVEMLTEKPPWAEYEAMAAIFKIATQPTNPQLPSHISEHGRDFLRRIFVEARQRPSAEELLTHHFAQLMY
AKT1 (human), sequence (P31749 whole entry, looked up): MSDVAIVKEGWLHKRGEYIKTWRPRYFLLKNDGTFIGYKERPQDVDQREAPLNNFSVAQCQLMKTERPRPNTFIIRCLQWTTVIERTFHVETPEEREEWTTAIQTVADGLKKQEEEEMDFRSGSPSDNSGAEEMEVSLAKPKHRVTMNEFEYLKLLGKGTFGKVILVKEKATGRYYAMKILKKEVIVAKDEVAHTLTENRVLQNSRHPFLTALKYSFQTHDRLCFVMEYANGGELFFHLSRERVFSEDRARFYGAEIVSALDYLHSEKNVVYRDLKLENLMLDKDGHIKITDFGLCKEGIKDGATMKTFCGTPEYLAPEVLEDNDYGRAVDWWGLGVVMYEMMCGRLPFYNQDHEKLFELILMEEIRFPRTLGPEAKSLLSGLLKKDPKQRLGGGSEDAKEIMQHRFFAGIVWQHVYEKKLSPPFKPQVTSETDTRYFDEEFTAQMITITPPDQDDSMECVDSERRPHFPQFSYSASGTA
CDK7 (human), sequence (P50613 whole entry, looked up): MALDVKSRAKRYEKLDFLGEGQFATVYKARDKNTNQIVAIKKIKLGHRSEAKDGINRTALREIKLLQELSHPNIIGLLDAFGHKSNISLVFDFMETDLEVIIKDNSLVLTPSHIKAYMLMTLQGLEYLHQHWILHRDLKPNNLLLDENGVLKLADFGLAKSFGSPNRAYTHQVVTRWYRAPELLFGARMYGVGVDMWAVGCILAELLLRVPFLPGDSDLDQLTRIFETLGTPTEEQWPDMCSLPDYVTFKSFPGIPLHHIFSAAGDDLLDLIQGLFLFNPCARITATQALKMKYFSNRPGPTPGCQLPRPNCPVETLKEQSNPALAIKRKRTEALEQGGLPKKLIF
NEK7 (human), sequence (Q8TDX7 whole entry, looked up): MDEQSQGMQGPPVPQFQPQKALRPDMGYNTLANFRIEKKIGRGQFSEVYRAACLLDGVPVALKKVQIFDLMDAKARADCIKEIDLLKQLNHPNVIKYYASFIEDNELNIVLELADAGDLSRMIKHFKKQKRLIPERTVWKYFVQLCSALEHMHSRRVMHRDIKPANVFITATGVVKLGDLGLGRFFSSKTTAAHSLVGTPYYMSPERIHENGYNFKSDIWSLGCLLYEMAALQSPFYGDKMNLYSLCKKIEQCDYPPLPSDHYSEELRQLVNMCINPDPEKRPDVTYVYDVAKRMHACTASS
YSK4 (human), sequence (Q56UN5 whole entry, looked up): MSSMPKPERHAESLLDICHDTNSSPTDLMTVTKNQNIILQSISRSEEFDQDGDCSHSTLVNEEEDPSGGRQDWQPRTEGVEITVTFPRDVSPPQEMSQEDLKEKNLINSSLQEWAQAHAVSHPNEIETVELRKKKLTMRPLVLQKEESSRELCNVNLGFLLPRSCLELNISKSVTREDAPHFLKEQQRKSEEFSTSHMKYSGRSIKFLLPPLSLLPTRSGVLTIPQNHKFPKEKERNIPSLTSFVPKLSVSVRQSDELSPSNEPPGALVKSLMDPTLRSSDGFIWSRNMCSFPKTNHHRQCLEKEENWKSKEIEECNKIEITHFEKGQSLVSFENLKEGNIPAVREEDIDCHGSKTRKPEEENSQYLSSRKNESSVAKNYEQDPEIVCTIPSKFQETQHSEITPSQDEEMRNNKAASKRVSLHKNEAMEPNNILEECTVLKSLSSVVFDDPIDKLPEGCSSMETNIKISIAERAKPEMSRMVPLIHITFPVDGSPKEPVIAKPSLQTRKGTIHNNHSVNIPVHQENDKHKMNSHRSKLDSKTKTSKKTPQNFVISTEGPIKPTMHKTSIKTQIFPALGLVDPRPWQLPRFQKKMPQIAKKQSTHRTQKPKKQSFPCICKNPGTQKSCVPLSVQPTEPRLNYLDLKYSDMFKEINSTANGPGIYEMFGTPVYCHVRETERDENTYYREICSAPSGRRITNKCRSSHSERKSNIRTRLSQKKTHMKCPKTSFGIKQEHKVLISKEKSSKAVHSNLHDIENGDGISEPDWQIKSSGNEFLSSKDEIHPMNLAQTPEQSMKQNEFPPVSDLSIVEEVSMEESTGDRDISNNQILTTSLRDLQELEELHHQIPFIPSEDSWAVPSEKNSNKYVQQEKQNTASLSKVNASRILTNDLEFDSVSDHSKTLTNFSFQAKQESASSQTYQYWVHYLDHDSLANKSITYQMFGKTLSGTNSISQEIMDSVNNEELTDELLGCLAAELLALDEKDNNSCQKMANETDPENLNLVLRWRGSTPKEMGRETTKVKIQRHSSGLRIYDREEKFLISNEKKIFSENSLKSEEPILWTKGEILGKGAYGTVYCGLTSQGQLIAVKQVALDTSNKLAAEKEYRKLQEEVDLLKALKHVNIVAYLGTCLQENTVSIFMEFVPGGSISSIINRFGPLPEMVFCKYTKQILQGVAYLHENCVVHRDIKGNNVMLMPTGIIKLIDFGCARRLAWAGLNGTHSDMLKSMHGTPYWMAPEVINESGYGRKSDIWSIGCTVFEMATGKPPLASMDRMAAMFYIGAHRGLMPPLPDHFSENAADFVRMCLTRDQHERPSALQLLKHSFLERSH
PIK3CA (human), P42336 [M1043I], sequence (P42336 whole entry M1043I, looked up): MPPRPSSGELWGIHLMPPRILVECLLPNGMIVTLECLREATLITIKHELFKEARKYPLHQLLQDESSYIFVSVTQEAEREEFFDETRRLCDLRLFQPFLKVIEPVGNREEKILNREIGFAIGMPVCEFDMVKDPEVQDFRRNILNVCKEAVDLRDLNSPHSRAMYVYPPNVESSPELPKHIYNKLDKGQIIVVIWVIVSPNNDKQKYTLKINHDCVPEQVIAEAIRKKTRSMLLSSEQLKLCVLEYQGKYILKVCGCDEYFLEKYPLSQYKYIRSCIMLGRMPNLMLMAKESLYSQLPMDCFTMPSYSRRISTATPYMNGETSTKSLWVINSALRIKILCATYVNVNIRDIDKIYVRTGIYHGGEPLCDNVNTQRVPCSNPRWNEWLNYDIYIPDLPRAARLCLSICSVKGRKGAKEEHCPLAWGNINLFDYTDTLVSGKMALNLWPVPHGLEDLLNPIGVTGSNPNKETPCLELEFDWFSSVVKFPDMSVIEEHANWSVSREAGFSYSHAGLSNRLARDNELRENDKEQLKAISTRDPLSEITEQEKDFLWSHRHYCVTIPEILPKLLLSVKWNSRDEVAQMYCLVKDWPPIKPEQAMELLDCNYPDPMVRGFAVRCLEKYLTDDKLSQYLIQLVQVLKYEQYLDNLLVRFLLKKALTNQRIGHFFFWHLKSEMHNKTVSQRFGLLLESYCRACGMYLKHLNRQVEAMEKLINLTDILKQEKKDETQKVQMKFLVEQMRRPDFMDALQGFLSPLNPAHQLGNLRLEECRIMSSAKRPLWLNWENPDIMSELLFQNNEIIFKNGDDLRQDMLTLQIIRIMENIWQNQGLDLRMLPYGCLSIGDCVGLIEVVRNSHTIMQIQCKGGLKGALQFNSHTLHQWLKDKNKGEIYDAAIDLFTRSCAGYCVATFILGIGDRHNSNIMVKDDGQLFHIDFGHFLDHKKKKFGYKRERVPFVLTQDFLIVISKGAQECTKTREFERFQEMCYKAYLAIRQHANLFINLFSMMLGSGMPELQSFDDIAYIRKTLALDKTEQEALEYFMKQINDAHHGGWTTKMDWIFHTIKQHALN
CDK3 (human), sequence (Q00526 whole entry, looked up): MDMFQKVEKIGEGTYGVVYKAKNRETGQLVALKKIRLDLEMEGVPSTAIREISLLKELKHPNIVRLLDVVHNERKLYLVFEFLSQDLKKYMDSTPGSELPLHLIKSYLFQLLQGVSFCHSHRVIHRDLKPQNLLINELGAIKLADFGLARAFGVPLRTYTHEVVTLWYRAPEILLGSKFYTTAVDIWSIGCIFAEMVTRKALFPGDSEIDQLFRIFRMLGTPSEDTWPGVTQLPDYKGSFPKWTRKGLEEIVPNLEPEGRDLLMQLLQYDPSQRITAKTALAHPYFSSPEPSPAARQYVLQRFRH

`COc1cc2c(Nc3ccc(NC(=O)c4ccccc4)cc3)ncnc2cc1OCCCN1CCOCC1` showed a kinase still bound, per cent of control [1] of 100%, a kinase still bound, per cent of control [2] of 100% and a kinase still bound, per cent of control [3] of 19%. The kinase still bound, per cent of control [4] was 100%, the kinase still bound, per cent of control [5] was 100% and the kinase still bound, per cent of control [6] was 51%. It also gave a kinase still bound, per cent of control [7] of 82%, a kinase still bound, per cent of control [8] of 100% and a kinase still bound, per cent of control [9] of 100%. For the same compound, the kinase still bound, per cent of control [10] was 100%, the kinase still bound, per cent of control [11] was 94% and the kinase still bound, per cent of control [12] was 0%. The kinase still bound, per cent of control [13] was 18%, the kinase still bound, per cent of control [14] was 81% and the kinase still bound, per cent of control [15] was 94%. For the same compound, the kinase still bound, per cent of control [16] was 48%, the kinase still bound, per cent of control [17] was 100% and the kinase still bound, per cent of control [18] was 100%. For the same compound, the kinase still bound, per cent of control [19] was 81%, the kinase still bound, per cent of control [20] was 100% and the kinase still bound, per cent of control [21] was 100%. For the same compound, the kinase still bound, per cent of control [22] was 99%, the kinase still bound, per cent of control [23] was 100% and the kinase still bound, per cent of control [24] was 6.5%. It also gave a kinase still bound, per cent of control [25] of 27%, a kinase still bound, per cent of control [26] of 100% and a kinase still bound, per cent of control [27] of 91%. The kinase still bound, per cent of control [28] was 0.15%, the kinase still bound, per cent of control [29] was 17% and the kinase still bound, per cent of control [30] was 2.8%. For the same compound, the kinase still bound, per cent of control [31] was 100%, the kinase still bound, per cent of control [32] was 62% and the kinase still bound, per cent of control [33] was 91%. It also gave a kinase still bound, per cent of control [34] of 100%, a kinase still bound, per cent of control [35] of 16% and a kinase still bound, per cent of control [36] of 100%. The kinase still bound, per cent of control [37] was 23%, the kinase still bound, per cent of control [38] was 92% and the kinase still bound, per cent of control [39] was 100%. It also gave a kinase still bound, per cent of control [40] of 94%.
For `CC1=C(C(=O)Nc2cc3cn[nH]c3cc2F)C(c2ccc(C(F)(F)F)cc2)CC(=O)N1` (stereo unspecified), the kinase still bound, per cent of control [1] was 80%, the kinase still bound, per cent of control [2] was 78% and the kinase still bound, per cent of control [3] was 78%. For the same compound, the kinase still bound, per cent of control [4] was 74%, the kinase still bound, per cent of control [5] was 88% and the kinase still bound, per cent of control [6] was 100%. It also gave a kinase still bound, per cent of control [7] of 79%, a kinase still bound, per cent of control [8] of 99% and a kinase still bound, per cent of control [9] of 100%. The kinase still bound, per cent of control [10] was 100%, the kinase still bound, per cent of control [11] was 72% and the kinase still bound, per cent of control [12] was 71%. For the same compound, the kinase still bound, per cent of control [13] was 82%, the kinase still bound, per cent of control [41] was 51% and the kinase still bound, per cent of control [14] was 78%. For the same compound, the kinase still bound, per cent of control [15] was 70%, the kinase still bound, per cent of control [16] was 74% and the kinase still bound, per cent of control [17] was 97%. The kinase still bound, per cent of control [18] was 65%, the kinase still bound, per cent of control [19] was 100% and the kinase still bound, per cent of control [20] was 100%. It also gave a kinase still bound, per cent of control [21] of 76%, a kinase still bound, per cent of control [22] of 93% and a kinase still bound, per cent of control [23] of 100%. For the same compound, the kinase still bound, per cent of control [24] was 58%, the kinase still bound, per cent of control [25] was 92% and the kinase still bound, per cent of control [26] was 15%. For the same compound, the kinase still bound, per cent of control [27] was 29%, the kinase still bound, per cent of control [28] was 20% and the kinase still bound, per cent of control [29] was 85%. The kinase still bound, per cent of control [30] was 77%, the kinase still bound, per cent of control [31] was 96% and the kinase still bound, per cent of control [32] was 79%. It also gave a kinase still bound, per cent of control [33] of 100%, a kinase still bound, per cent of control [34] of 99% and a kinase still bound, per cent of control [35] of 65%. It also gave a kinase still bound, per cent of control [36] of 54%, a kinase still bound, per cent of control [37] of 50% and a kinase still bound, per cent of control [38] of 28%. It also gave a kinase still bound, per cent of control [39] of 77% and a kinase still bound, per cent of control [40] of 96%.
